According to ChEMBL document CHEMBL4425118, “Potential Treatment for Neuropsychiatry Disorders with TRPC5 Modulators” (ACS Med Chem Lett, 2016):
pIC50: −log10 of the molar value.

What was measured:
[1] = biological target: T1, Short transient receptor potential channel 5 (Homo sapiens, UniProt Q9UL62); assay: Inhibition of TRPC5 (unknown origin) transfected in HEK293/TREx cells assessed as blocking of inward/outward currents after 20 to 48 hrs in presence of LaCl3 by patch clamp assay; assay type: cell-based
T1 sequence (Q9UL62 whole entry): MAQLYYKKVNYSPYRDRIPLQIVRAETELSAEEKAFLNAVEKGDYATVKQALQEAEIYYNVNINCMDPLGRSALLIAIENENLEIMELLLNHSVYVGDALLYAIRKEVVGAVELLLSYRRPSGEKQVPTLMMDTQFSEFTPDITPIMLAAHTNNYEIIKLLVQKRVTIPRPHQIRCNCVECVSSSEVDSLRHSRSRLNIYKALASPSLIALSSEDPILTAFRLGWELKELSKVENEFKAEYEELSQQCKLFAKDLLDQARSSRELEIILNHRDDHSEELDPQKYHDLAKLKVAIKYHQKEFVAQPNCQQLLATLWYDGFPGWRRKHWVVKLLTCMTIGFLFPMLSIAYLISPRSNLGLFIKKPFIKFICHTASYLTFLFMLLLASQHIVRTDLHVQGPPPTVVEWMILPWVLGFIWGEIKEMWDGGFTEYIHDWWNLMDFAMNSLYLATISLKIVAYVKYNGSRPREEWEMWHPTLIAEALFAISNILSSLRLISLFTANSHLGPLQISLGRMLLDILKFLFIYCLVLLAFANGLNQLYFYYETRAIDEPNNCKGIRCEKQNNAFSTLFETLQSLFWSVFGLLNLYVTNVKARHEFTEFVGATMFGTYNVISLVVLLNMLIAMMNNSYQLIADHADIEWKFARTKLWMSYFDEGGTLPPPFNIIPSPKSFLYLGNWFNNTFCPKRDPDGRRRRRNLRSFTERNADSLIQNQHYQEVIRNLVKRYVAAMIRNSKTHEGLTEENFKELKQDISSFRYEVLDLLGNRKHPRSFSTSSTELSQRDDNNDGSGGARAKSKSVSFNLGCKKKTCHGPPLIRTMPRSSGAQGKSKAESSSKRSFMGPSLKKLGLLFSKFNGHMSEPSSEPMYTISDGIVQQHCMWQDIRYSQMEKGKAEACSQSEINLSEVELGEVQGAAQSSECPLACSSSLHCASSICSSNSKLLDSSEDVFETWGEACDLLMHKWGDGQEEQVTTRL

[2] = biological target: T1, Short transient receptor potential channel 5; assay: Inhibition of TRPC5 (unknown origin) transfected in HEK293/TREx cells assessed as reduction of rise in intracellular Ca2+ concentration after 60 to 80 mins by Fluo4 cell-based fluorescence assay

| Structure (SMILES) | pIC50 [1] | pIC50 [2] |
| --- | --- | --- |
| COc1ccc2c(c1Cc1ccccc1)c(=O)n(CCCO)c(=O)n2C | 7.63 |  |
| CC(C)Oc1ccc2c(c1Cc1ccc(F)cc1)c(=O)n(CCCO)c(=O)n2C | 8.05 | 8.58 |
| Cn1c(=O)n(CCCO)c(=O)c2c(Cc3ccccc3)c(-c3cccc(OC(F)(F)F)c3)ccc21 | 8.28 |  |
| Cn1c(=O)n(CCCO)c(=O)c2c(Cc3ccccc3)c(Oc3cccc(OC(F)(F)F)c3)ccc21 | > 9.00 | 8.57 |

Continued, in another order:

| pIC50 [1] | Structure (SMILES) | pIC50 [2] |
| --- | --- | --- |
| 8.08 | COc1ccc2c(c1Cc1ccc(F)cc1)c(=O)n(CCCO)c(=O)n2C | < 7.00 |
| > 9.00 | CCCCOc1ccc2c(c1Cc1ccc(F)cc1)c(=O)n(CCCO)c(=O)n2C | > 9.00 |
